Measured values taken from patent US20210255193A1, “LYSINE REACTIVE PROBES AND USES THEREOF” (The Scripps Research Institute, priority 2017, published 2021).

Key:
[1] = target: T1, PFKP (Homo sapiens, UniProt Q01813); assay: PFKP functional assay; assay type: biochemical; details: WT-PFKP
T1 construct: Flag; expressed in transfected cells; host or cells: HEK 293T, transient transfection, soluble lysate; cDNA clone 5180268 (Dharmacon)
T1 sequence (Q01813 1-784): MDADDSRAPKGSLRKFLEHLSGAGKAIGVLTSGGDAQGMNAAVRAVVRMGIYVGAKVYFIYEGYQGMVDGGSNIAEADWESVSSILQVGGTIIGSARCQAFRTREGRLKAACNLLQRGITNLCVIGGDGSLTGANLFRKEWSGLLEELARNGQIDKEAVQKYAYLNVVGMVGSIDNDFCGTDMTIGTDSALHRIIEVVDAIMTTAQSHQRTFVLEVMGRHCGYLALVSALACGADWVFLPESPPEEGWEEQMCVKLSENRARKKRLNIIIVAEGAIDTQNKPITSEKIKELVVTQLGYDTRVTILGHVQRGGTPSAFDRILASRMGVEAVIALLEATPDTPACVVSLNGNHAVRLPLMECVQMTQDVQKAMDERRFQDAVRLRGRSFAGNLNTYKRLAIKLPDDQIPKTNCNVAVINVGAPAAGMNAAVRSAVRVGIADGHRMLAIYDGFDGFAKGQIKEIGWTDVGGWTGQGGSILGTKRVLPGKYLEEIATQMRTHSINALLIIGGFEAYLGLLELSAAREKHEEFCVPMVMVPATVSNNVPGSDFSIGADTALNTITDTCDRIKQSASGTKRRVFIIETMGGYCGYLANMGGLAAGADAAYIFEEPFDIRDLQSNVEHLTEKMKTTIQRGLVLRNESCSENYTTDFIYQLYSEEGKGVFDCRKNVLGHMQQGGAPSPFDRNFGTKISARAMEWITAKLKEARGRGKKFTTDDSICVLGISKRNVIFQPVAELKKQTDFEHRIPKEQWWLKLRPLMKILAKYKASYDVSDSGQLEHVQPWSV
Method: (§1) PFKP functional assay. For inhibitor experiments, 50 μl of soluble proteome (initial total protein concentration: 1 mg ml^−1) from HEK 293T cells expressing PFKP (WT or K688R mutant) or mock transfected cells (empty vector; negative control) were incubated with 1 μl 50× of the compound in DMSO or DMSO for the positive or negative control for 1 h at room temperature. Lysates were diluted 40× with dilution buffer (PBS containing 0.2 mg ml^−1 BSA and 5 mM MgCl2) and 40 μl were added into a clear bottom 384 well plate. 10 μl of a mixture of 3.5 μl PBS, 2.5 μl fructose-6-phosphate (100 mM), 1 μl NADH (20 mM), 1 μl ATP (50 mM), 1 μl aldolase (50 U ml^−1) and 1 μl GDH/TPI (500 U ml^−1 TPI, 50 U ml^−1 GDH) were added to start the reaction. The absorbance of NADH was measured at 340 nm every minute for 30 min.
(§2) Calculation of relative activity or percent inhibition. For PNPO, PFKP, NUDT2 and G6PD, the slope of the linear regression of the linear portion of the absorbance or fluorescence over time was used as measure their activity. Apparent activity was calculated relative to the WT. Percent inhibition was calculated relative to the positive and negative control and used to calculate IC50 values by nonlinear regression analysis from a dose-response curve generated using GraphPad Prism 7.

[2] = target: T2, PFKP (Homo sapiens, UniProt Q01813, K688R); assay: PFKP functional assay; assay type: biochemical; details: K688R mutant
T2 construct: Flag; expressed in transfected cells; host or cells: HEK 293T, transient transfection, soluble lysate; cDNA clone 5180268 (Dharmacon)
T2 sequence (Q01813 whole entry K688R): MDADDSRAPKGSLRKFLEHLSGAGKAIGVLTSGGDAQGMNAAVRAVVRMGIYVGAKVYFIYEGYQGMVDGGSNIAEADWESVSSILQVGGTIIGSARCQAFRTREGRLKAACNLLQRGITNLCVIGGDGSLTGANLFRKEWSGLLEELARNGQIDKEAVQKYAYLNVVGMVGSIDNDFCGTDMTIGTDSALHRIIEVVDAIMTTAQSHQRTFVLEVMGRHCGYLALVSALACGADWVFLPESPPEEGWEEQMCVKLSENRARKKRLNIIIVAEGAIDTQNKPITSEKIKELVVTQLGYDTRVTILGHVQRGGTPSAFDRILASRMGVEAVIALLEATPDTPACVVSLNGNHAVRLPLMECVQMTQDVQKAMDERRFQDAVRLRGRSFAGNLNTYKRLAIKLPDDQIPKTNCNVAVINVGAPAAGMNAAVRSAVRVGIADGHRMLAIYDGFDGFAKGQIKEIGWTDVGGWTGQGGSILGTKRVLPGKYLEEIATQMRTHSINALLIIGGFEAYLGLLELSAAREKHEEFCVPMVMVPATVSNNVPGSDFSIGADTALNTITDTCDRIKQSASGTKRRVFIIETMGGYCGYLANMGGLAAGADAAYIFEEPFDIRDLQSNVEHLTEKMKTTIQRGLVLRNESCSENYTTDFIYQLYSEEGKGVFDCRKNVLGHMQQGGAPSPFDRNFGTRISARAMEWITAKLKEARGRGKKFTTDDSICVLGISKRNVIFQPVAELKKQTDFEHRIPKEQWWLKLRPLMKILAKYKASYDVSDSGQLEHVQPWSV
Method: as §1, §2

SMILES: O=C(Oc1c(F)c(F)c(F)c(F)c1F)C(c1ccccc1)c1ccccc1 [fragment 20, Pentafluorophenyl 2,2-diphenylacetate]
- IC50 ([1]; enzyme-coupled assay, read-out: apparent IC50, inhibition of PFKP activity): 2900 nM
- maximal inhibitory effect, reduction in substrate turnover ([1]; plateau): about 80%
- inhibition of K688R-PFKP mutant activity [2]: not the K688R-PFKP mutant
